{"source": "patent US5663165A", "about": "“Hypolipidaemic benzothiazepine compounds” (Glaxo Wellcome Inc., priority 1992, dated 1997)", "tested_on": "sodium-dependent 3H taurocholate uptake in rat distal ileal brush border membrane vesicles", "experiment": "In vitro inhibition of bile acid uptake", "type": "biochemical", "details": "10 μM 3H taurocholate, 30 seconds at 24° C., active (sodium-dependent) uptake vs control", "procedure": "In vitro inhibition of bile acid uptake\nFreshly prepared rat distal ileal brush border membrane vesicles (about […] vesicle protein) were incubated for 30 seconds at 24° C. in an incubation mixture comprising 10 μM ^3 H taurocholate, 100 mM NaCl (or KCl) and 80 mM mannitol in 20 mM Hepes Tris pH 7.4. Each test compound was dissolved in ethanol (or water) and then diluted with incubation mixture to an ethanol concentration of not more than 1% v/v. The incubation was terminated by rapid dilution and filtration and the filter washed with an ice-cold isotonic sodium-free buffer.\nThe uptake of ^3 H taurocholate was measured by the radioactivity remaining on the filter and converted to pmoles/mg vesicle protein. The active, ie sodium-dependent, uptake was obtained by subtracting the passive uptake measured in 100 mM KCl from the total uptake measured in 100 mM NaCl. The active uptake for each test compound was compared with a control active uptake and the results expressed at % inhibition of bile acid uptake.", "data": [{"smiles": "CCCC[C@]1(CC)CS(=O)(=O)c2ccccc2[C@@H](c2ccccc2)N1", "note": "[Synthetic Example 1, (-)-(RR)-3-butyl-3-ethyl-2,3,4,5-tetrahydro-5-phenyl-1,4-benzothiazepine-1,1-dioxide]", "values": [{"measurement": "% inhibition of bile acid uptake", "setting": "0.3 μM test compound", "result": 55, "unit": "%"}, {"measurement": "% inhibition of bile acid uptake", "setting": "1 μM test compound", "result": 69, "unit": "%"}, {"measurement": "% inhibition of bile acid uptake", "setting": "3 μM test compound", "result": 85, "unit": "%"}, {"measurement": "% inhibition of bile acid uptake", "setting": "10 μM test compound", "result": 96, "unit": "%"}]}]}
